Measurements from patent US20220220100A1 (SOLUTIA CANADA INC., priority 2019, published 2022).

Assay: Photostationary state (PSS) and lambda max under simulated sunlight (solar simulator)
Format: physicochemical
Conditions: for PSS (Steady State): head of Table 3; for PSS (Steady State) / PSS (SS): absorbance at photostationary state, 2×10^−5 M solution; for λmax (nm): peak in the visible range, ring-closed (dark) state; for PSS (SS): simulated sunlight (solar simulator)
Excerpt: The term “photostationary state” (PSS) refers to an equilibrium state of a compound or material where the rate of the ring closing (forward) reaction is equal to the rate of the ring-opening reaction, when irradiated with light in a given region of the spectrum. In other words, the ratio of the ring-open isomer to the ring-closed isomer is at an equilibrium. PSS may be expressed with reference to a light source, or with reference to a type of light, for example, QUV, Xenon-arc lamp, Q-SUN, natural or filtered sunlight, UV, VIS, IR, NIR, full spectrum or the like, or with reference to a particular wavelength or range of wavelengths, or in the presence or absence of a filter. Some ring-open and ring-closed isomers may undergo isomerization from one to the other in response to different wavelengths of light. If a wavelength of light is used where only one of the isomers absorbs, irradiation results in complete isomerization to the other form. 254 nm, 313 nm or 365 nm light are commonly used in studies of UV-absorbing isomers, but this may not be representative of the PSS under other light conditions that include the visible spectrum such as natural or simulated sunlight (“full spectrum” light) and/or with filters that block a portion of the UV component of the light. For example, in a ring-closed (dark) state, the magnitude of the maximum absorbance in the visible range may change with the light source (FIG. 1). The wavelength at this peak in the visible range may be referred to as lambda max, or λmax. […] When full spectrum light from a solar simulator (Xenon arc lamp) is used as a light source (line B), a balance is achieved between the ring-closed (dark) state induced by the UV component, and a ring-open (faded) state induced by the visible component of the light. Inclusion of a UV blocking layer in the light path (line A) may reduce the UV component of the light, and the ring-opening reaction induced by the visible light component becomes more prominent. […] Where desired, the ratio of ring-open and ring-closed isomers at a PSS may be quantified by ^1H NMR spectroscopy, such as described in U.S. Pat. No. 7,777,055. In various embodiments, compounds with an increased absorbance at a photostationary state (PSS), or increased contrast ratio, are an improvement over other diarylethene compounds. A compound with a greater absorbance in the visible range can be used in lesser quantities in a formulation or material to achieve a desired contrast ratio, whereas a compound with a lower absorbance at a PSS may need a higher concentration to achieve a desired contrast ratio.
Photostationary State (PSS)
UV/Vis spectra were obtained using an OceanOptics™ Spectrophotometer. A 2×10^−5 M solution of compound in solvent was prepared, and photofaded using visible light until absorption in the visible region of the spectrum stabilized. The sample was then irradiated with simulated sunlight (QSUN SS-150 Solar Simulator with xenon arc lamp) until the absorption spectrum stabilized. To obtain PSS in the presence of a UV blocking film, a second sample was prepared and irradiated as described, with a UV blocking film inserted in the light path when irradiating.

Compound	PSS (Steady State)	λmax (nm)	PSS (SS)
CCOC(=O)CCCOc1cc2oc(-c3ccc(C(C)(C)C)cc3)c(C3=C(c4cc(-c5ccc(C(C)(C)C)s5)sc4-c4ccc(C(C)(C)C)s4)C(F)(F)C(F)(F)C3(F)F)c2cc1OCCCC(=O)OCC [Chromophore S374, diethyl 4,4′-((2-(4-(tert-butyl)phenyl)-3-(2-(5,5″-di-tert-butyl-[2,2′:5′,2″-terthiophen]-3′-yl)-3,3,4,4,5,5-hexafluorocyclopent-1-en-1-yl)benzofuran-5,6-diyl)bis(oxy))dibutanoate]	0.422	590 nm	–
COc1cc2oc(-c3ccc(C(C)(C)C)cc3)c(C3=C(c4cc(-c5cc(C(C)(C)C)cs5)sc4-c4cc(C(C)(C)C)cs4)C(F)(F)C(F)(F)C3(F)F)c2cc1OC [Chromophore S377, 2-(4-(tert-butyl)phenyl)-3-(2-(4,4″-di-tert-butyl-[2,2′:5′,2″-terthiophen]-3′-yl)-3,3,4,4,5,5-hexafluorocyclopent-1-en-1-yl)-5,6-dimethoxybenzofuran]	–	593 nm	0.308
COc1cc2oc(-c3ccc(C(C)(C)C)cc3)c(C3=C(c4cc(-c5ccc(C(C)(C)C)s5)sc4-c4sc(C(C)(C)C)cc4C)C(F)(F)C(F)(F)C3(F)F)c2cc1OC [Chromophore S378, 2-(4-(tert-butyl)phenyl)-3-(2-(5,5″-di-tert-butyl-3-methyl-[2,2′:5′,2″-terthiophen]-3′-yl)-3,3,4,4,5,5-hexafluorocyclopent-1-en-1-yl)-5,6-dimethoxybenzofuran]	0.351	593 nm	–
CCOC(=O)CCCOc1cc2oc(-c3ccc(C(C)(C)C)cc3)c(C3=C(c4cc(-c5ccc(C(C)(C)C)s5)sc4-c4sc(C(C)(C)C)cc4C)C(F)(F)C(F)(F)C3(F)F)c2cc1OCCCC(=O)OCC [Chromophore S383, diethyl 4,4′-((2-(4-(tert-butyl)phenyl)-3-(2-(5,5″-di-tert-butyl-3-methyl-[2,2′:5′,2″-terthiophen]-3′-yl)-3,3,4,4,5,5-hexafluorocyclopent-1-en-1-yl)benzofuran-5,6-diyl)bis(oxy))dibutanoate]	0.408	590 nm	–
CCOC(=O)CCCOc1cc2oc(-c3ccc(C(C)(C)C)cc3)c(C3=C(c4cc(-c5sc(C(C)(C)C)cc5C)sc4-c4sc(C(C)(C)C)cc4C)C(F)(F)C(F)(F)C3(F)F)c2cc1OCCCC(=O)OCC [Chromophore S384, diethyl 4,4′-((2-(4-(tert-butyl)phenyl)-3-(2-(5,5″-di-tert-butyl-3,3″-dimethyl-[2,2′:5′,2″-terthiophen]-3′-yl)-3,3,4,4,5,5-hexafluorocyclopent-1-en-1-yl)benzofuran-5,6-diyl)bis(oxy))dibutanoate]	0.342	593 nm	–
CCOC(=O)CCCOc1cc2oc(-c3ccc(C(C)(C)C)cc3)c(C3=C(c4cc(-c5cc(C(C)(C)C)cs5)sc4-c4cc(C(C)(C)C)cs4)C(F)(F)C(F)(F)C3(F)F)c2cc1OCCCC(=O)OCC [Chromophore S386, diethyl 4,4′-((2-(4-(tert-butyl)phenyl)-3-(2-(4,4″-di-tert-butyl-[2,2′:5′,2″-terthiophen]-3′-yl)-3,3,4,4,5,5-hexafluorocyclopent-1-en-1-yl)benzofuran-5,6-diyl)bis(oxy))dibutanoate]	–	593 nm	0.351
CCOC(=O)CCCOc1cc2oc(-c3ccc(C(C)(C)C)cc3)c(C3=C(c4cc(-c5cc6c(s5)C(C)(C)CCC6(C)C)sc4-c4cc5c(s4)C(C)(C)CCC5(C)C)C(F)(F)C(F)(F)C3(F)F)c2cc1OCCCC(=O)OCC [Chromophore S387, ethyl 4-[(3-{2-[2,5-bis(4,4,7,7-tetramethyl-4,5,6,7-tetrahydro-1-benzothiophen-2-yl)thiophen-3-yl]-3,3,4,4,5,5-hexafluorocyclopent-1-en-1-yl}-2-(4-tert-butylphenyl)-6-(4-ethoxy-4-oxobutoxy)-1-benzofuran-5-yl)oxy]butanoate]	–	594 nm	0.409
COCCCOc1cc2oc(-c3ccc(C(C)(C)C)cc3)c(C3=C(c4cc(-c5cc6c(s5)C(C)(C)CCC6(C)C)sc4-c4cc5c(s4)C(C)(C)CCC5(C)C)C(F)(F)C(F)(F)C3(F)F)c2cc1OCCCOC [Chromophore S388, 3-(2-(2,5-bis(4,4,7,7-tetramethyl-4,5,6,7-tetrahydrobenzo[b]thiophen-2-yl)thiophen-3-yl)-3,3,4,4,5,5-hexafluorocyclopent-1-en-1-yl)-2-(4-(tert-butyl)phenyl)-5,6-bis(3-methoxypropoxy)benzofuran]	–	600 nm	0.38
CC(C)(C)c1ccc(-c2oc3cc(OCCN4CCOC4=O)c(OCCN4CCOC4=O)cc3c2C2=C(c3cc(-c4cc5c(s4)C(C)(C)CCC5(C)C)sc3-c3cc4c(s3)C(C)(C)CCC4(C)C)C(F)(F)C(F)(F)C2(F)F)cc1 [Chromophore S390, 3,3′-(((3-(2-(2,5-bis(4,4,7,7-tetramethyl-4,5,6,7-tetrahydrobenzo[b]thiophen-2-yl)thiophen-3-yl)-3,3,4,4,5,5-hexafluorocyclopent-1-en-1-yl)-2-(4-(tert-butyl)phenyl)benzofuran-5,6-diyl)bis(oxy))bis(ethane-2,1-diyl))bis(oxazolidin-2-one)]	–	593 nm	0.45
CC(=O)Oc1cc2oc(-c3ccc(C(C)(C)C)cc3)c(C3=C(c4cc(-c5cc(C(C)(C)C)cs5)sc4-c4cc(C(C)(C)C)cs4)C(F)(F)C(F)(F)C3(F)F)c2cc1OC(C)=O [Chromophore S396, 2-(4-(tert-butyl)phenyl)-3-(2-(4,4″-di-tert-butyl-[2,2′:5′,2″-terthiophen]-3′-yl)-3,3,4,4,5,5-hexafluorocyclopent-1-en-1-yl)benzofuran-5,6-diyl diacetate]	–	578 nm	0.278
COc1ccc2oc(-c3ccc(C(C)(C)C)cc3)c(C3=C(c4cc(-c5cc6c(s5)C(C)(C)CCC6(C)C)sc4-c4cc5c(s4)C(C)(C)CCC5(C)C)C(F)(F)C(F)(F)C3(F)F)c2c1 [Chromophore S400]	–	592 nm	0.306
COc1cc2oc(-c3ccc(C(C)(C)C)cc3)c(C3=C(c4cc(-c5cc6c(s5)C(C)(C)CCCC6(C)C)sc4-c4cc5c(s4)C(C)(C)CCCC5(C)C)C(F)(F)C(F)(F)C3(F)F)c2cc1OC [Chromophore S405]	–	598 nm	0.381
